Experimental data reported in patent US20150342876A1, “METHODS AND PHARMACEUTICAL COMPOSITIONS FOR THE TREATMENT OF OCULAR INFLAMMATORY DISEASES” (Institut National de la Santé et de la Recherche Médicale …, priority 2011, published 2015).

Tests used:
Assay type in all cases: in vivo, Lewis rats
[1] = tested on: macrophages; assay: EDI positive cell counts in histological sections (immunohistochemistry) in EIU; conditions: intravitreal 200 nM, 24 h after LPS, compared to eyes injected vehicle or spironolactone, p<0.05
Protocol: To evaluate the effect of intravitreal injection of 200 nM aldosterone and spironolactone 10 μM, immunohistochemical studies were performed on cryostat sections. An anti EDI antibody coupled with an Alexa488 secondary antibody was used to mark macrophages which are among the cells most involved in EIU. We conducted an EDI positive cell counts in histological sections 24 h after LPS injection and intravitreal injection of aldosterone or spironolactone.

[2] = tested on: blood-ocular barrier; assay: Proteins present in eye fluids (leaking of the blood-ocular barrier) in EIU; conditions: at 6 hours, versus vehicle
Description: Proteins present in eye fluids reflect the leaking of the blood-ocular barrier.

[3] = tested on: IL-6; assay: Chemokine/cytokine multiplex assay of ocular media in EIU: IL-6; conditions: compared with control animals treated with the vehicle alone (FIG. 2)
Protocol: (§1) Aqueous humor and vitreous collected from each eye were pooled, diluted to obtain a final volume of 25 μL, and subjected to multiplex bead analysis. This method uses microspheres as the solid support for immunoassays (Vignali D A. Multiplexed particle-based flow cytometric assays. J Immunol Methods. 2000; 243:243-255.) and allows the titration of a greater number of cytokines with increased sensitivity than occurs with ELISA (Ooi K G, Galatowicz G, Towler H M, Lightman S L, Calder V L. Multiplex cytokine detection versus ELISA for aqueous humor: IL-5, IL-10, and IFNγ profiles in uveitis. Invest Ophthalmol Vis Sci. 2006; 47:272-277.). The rat cytokine/chemokine LINCO-16plex kit (Linco Research) was purchased from Invitrogen (Cergy-Pontoise, France). Chemokine MIP1α/CCL3, proinflammatory mediator TNF-α, cytokines IFN-γ/IL-4, and IL-6 were measured according to the manufacturer's instructions. The assay was performed in a 96-well filter plate with all the assay components provided in the kit. Standard curves for each cytokine were generated with a calibration kit (Bio-Rad, Hercules, Calif.). All incubation steps were performed at room temperature with medium orbital agitation and in the dark to protect the beads from light. Data acquisition and analysis were performed with the manager software version 4.1 (Bioplex; Bio-Rad) with four or five logistic parameters for standard curves. […]

[4] = tested on: MIP1α/CCL3; assay: Chemokine/cytokine multiplex assay of ocular media in EIU: MIP1α/CCL3; conditions: compared with control animals treated with the vehicle alone (FIG. 2)
Protocol: as §1

[5] = tested on: TNF-α; assay: Chemokine/cytokine multiplex assay of ocular media in EIU: TNF-α; conditions: compared with control animals treated with the vehicle alone (FIG. 2)
Protocol: as §1

[6] = tested on: Endotoxin-induced uveitis; assay: Endotoxin-induced uveitis, clinical score at slit lamp; conditions: for severity of uveitis (clinical examination): slit lamp 24 hours after LPS
Protocol: Female Lewis rats (6- to 8-week old) weighing 230-250 g (Elevage Janvier, Le Genest Saint Isle, France) were used and handled in accordance with the ARVO Statement for the Use of Animals in Ophthalmic and Vision Research. Rats were anesthetized with intramuscular injection of ketamine (75 mg kg^−1; Virbac, Carros Cedex, France) and Largactil (0.5 mg kg^−1; Sanofi-aventis, Paris, France) before ocular injection and ET. At the end of the experiments, rats were anesthetized by intraperitoneal injection of pentobarbital (30 mg kg^−1; Sanofi-aventis) before blood collection by intracardiac puncture and then killed with a lethal dose of pentobarbital.
Endotoxin-induced uveitis was induced by footpad injection of 0.1 ml sterile pyrogen-free saline containing 500 μgkg^−1 LPS (from Salmonella typhimurium; Sigma-Aldrich). Animals were examined by slit lamp during the maximal severity of EIU developing in this model 24 h after the footpad injection. The intensity of clinical ocular inflammation was scored on a scale from 0 to 5 for each eye as described previously (Behar-Cohen F F, Parel J M, Pouliquen Y, Thillaye-Goldenberg B, Goureau O, Heydolph S et al. Iontophoresis of dexamethasone in the treatment of endotoxin-induced-uveitis in rats. Exp Eye Res 1997; 65: 533-545.): grade (0) indicates no inflammation; grade 1 indicates the presence of a minimal iris and conjunctival vasodilation but without the observation of flare or cells in the anterior chamber (AC); grade 2 indicates the presence of moderate iris and conjunctival vessel dilation but without evident flare or cells in the AC; grade 3 indicates the presence of intense iris vessels dilation, flare and less than 10 cells per slit lamp field in the AC; grade 4 indicates the presence of more severe clinical signs than grade 3, with more than 10 cells in the AC with or without the formation of a hypopyon; grade 5 indicates the presence of intense inflammatory reaction, fibrin formation in the AC and total seclusion of the pupil.
Clinical evaluation was performed in a masked manner by two observers. The mean clinical score of the two observers was recorded.
Lewis rats were anesthetized by intraperitoneal injection of 0.15 mL pentobarbital (5.47 g/100 mL saline). Pupils were dilated by instillation of one drop of tropicamide 5%. One drop of tetracaine 1% was administered for local anesthesia. Intravitreal injections (10 μL) of aldosterone (20 nM and 200 nM) and spironolactone (10 μM) were performed in both eyes using sterile syringes fitted with a 30-gauge needle (Microfine; Becton Dickinson AG, Meylan, France). Intravitreal injections were performed simultaneously with EIU induction, as described.
Results are expressed as mean±SEM. The Mann-Whitney U test was used to determine differences between groups. […]

[7] = tested on: resident microglial cells of the retina and ciliary body; assay: Anti-IBA-1 immunohistochemistry of resident microglial cells in EIU; conditions: 24 h after LPS and intravitreal injection, compared to eyes injected with the vehicle
Protocol: To evaluate the effect of aldosterone on resident microglial cells of the retina and ciliary body, we performed immunohistochemical studies with an anti-IBA-1 antibody coupled with a secondary antibody Alexa488 on cryostat sections 24 h after LPS injection and injection intravitreal aldosterone or spironolactone. […] The anti-inflammatory effect of aldosterone may be related to the deactivation of resident microglial cells.

[8] = tested on: GR; assay: Expression of GR in the iris and ciliary body in EIU (quantitative PCR); conditions: after intravitreal injection in EIU
Protocol: (§2) Iris and ciliary body tissues are most involved in the EIU. In an attempt to understand the role of MR and GR in EIU model, we evaluated the expression of these two receptors in quantitative PCR in the iris/ciliary body 3 h, 6 h and 24 h after injection of LPS. We were surprised that the kinetics of MR and GR were not similar. 3 hours after induction of EIU (p<0.001), so before the infiltration of inflammatory cells, there was a decreased expression of MR, which was maintained up to 24 hours (p<0.001). On the contrary the decreased expression of GR was later in the 24th hour (p<0.01). Immunohistochemical studies confirmed the decrease in the rate of receptors in the iris. The decreased expression of MR and GR takes place mainly in the endothelial cells of vessels in the iris and iris stromal cells. At baseline, the binding of endogenous glucocorticoids to MR likely plays a role in anti-inflammatory. The reduction of early MR can be seen as a step prior to the onset of ocular inflammation.
(§3) The expression of MR and GR in the iris and ciliary body is increased after intravitreal injection of aldosterone (p<0.05). […] Presumably, the anti-inflammatory effect of aldosterone in this model is partly due to the increased expression of MR.

[9] = tested on: IFN-γ/IL-4; assay: Chemokine/cytokine multiplex assay of ocular media in EIU: IFN-γ/IL-4; conditions: compared with control animals treated with the vehicle alone (FIG. 2)
Protocol: as §1

[10] = tested on: MR; assay: Expression of MR in the iris and ciliary body in EIU (quantitative PCR); conditions: after intravitreal injection in EIU, p<0.05
Protocol: as §2, §3

SMILES | number of macrophages (EDI positive cell counts) [1] | rate of protein in eye fluids [2] | IL-6 in the ocular media [3] | MIP1α/CCL3 in the ocular media [4] | TNF-α in the ocular media [5] | severity of uveitis (clinical examination) ([6]; injection 1 nM) | severity of uveitis (clinical examination) ([6]; intravitreal injection 20 nM, p<0.05) | severity of uveitis (clinical examination) ([6]; intravitreal injection 200 nM, p<0.001) | state of microglial cells (IBA-1) [7] | expression of GR in the iris and ciliary body [8] | IFN-γ/IL-4 in the ocular media [9] | expression of MR in the iris and ciliary body [10] | intensity of uveitis (clinical examination) ([6]; intravitreal injection 10 microM, 24 hours)
C[C@]12CCC(=O)C=C1CC[C@@H]1[C@@H]2[C@@H](O)C[C@]2(C=O)[C@@H](C(=O)CO)CC[C@@H]12 [aldosterone, 11β,21-dihydroxy-3,20-dioxopregn-4-en-18-al] | decrease in the number of macrophages | significantly reduced | significantly reduced | significantly reduced | significantly reduced | had no effect | severity decrease statistically significant | severity decrease statistically significant | greater number of microglial cells were then branched into a latent state | increased | significantly reduced | increased | 
CC(=O)S[C@@H]1CC2=CC(=O)CC[C@]2(C)[C@H]2CC[C@@]3(C)[C@@H](CC[C@@]34CCC(=O)O4)[C@H]12 [spironolactone] |  | had no effect | significantly increased | significantly increased | significantly increased |  |  |  | larger number of microglial cells were round, and consequently active | has no effect | significantly increased | exacerbated the decrease in MR | increased the intensity of uveitis
